In patent publication EP0260606A2, “Medicament for curing neurotic disturbance or disorder comprising sialocylglycerolipid” (MECT CORPORATION, priority 1986, dated 1988):

Test system: rats having their sciatic nerves crushed
Assay: Curing effect on rats with crushed sciatic nerve (distance between toes, weight of musculi soleus)
Format: in vivo, rat
Settings: for Recovery Rate (%) in Distance between the Fingers / Recovery Rate (%) in Weight of the Muscle: ip once per day, average ± S.D.; for Recovery Rate (%) in Weight of the Muscle: 28th Day
Description: The curing effect of the compound (I) of the invention on the rats having their sciatic nerves crushed, which were used as models caused by peripheral nervous disturbances, was assessed by examining (l) the change in action of the crushed hind leg and (2) the change in weight of the muscle as indicators for the modification of peripheral nerve and for the recovery course of the disturbance.
In the experiment, seven male Wister family rats (6 weeks age) were used per a group. The sciatic nerve of each rat was crushed in accordance with the method of Yamazu et al. (see Kiyomi Yamazu, Takenori Kaneko, Akifumi Kitahara and Isao Ohkawa, Journal of Japanese Pharmacological Society, 72, 259 - -268 (l976)) and in accordance with the method of Hasegawa et al. (see Kazuo Hasegawa, Naoji Mikuni and Yutaka Sakai, Journal of Japanese Pharmacological Society, 74, 72l - 734 (l978)). Specifically, under anesthesia with Pentobarbital (40 mg/kg, i.p.), the left sciatic nerve was exposed at the femur and the site 5 mm centrally from the branch portion between the N. tibialis and the N. suralis was crushed using a modified artery klemme having a width of 2 mm and gap of 0.l mm. Rats subjected to the operation were randomly dispensed to form the groups subjected to test.
The compound (I) of the invention was intraperitoneally administered one time per day from the day on which the nerve was crushed to the 22nd day. The control groups included a group administered with Mecobalamin (produced by Gedeon Richter Ltd.), a group administered with a 20% aqueous solution of propylene glycol (hereinafter referred to as 20% PG) which was used to dissolve the compound (I) of the invention, and a group administered with a 0.9% aqueous saline solution. The predetermined measurements were conducted with the lapse of time after the crushing operation (at the first, fourth, seventh, tenth, l4th, l5th, l7th, l9th 2lst and 28th days).
The distance between the toes was measured, since this is a good indicator showing the modification and recovery of the function of the nerve and the change thereof could conveniently measured with the lapse of time.
The measurement was conducted in accordance with the method of Hasegawa, (Hasegawa, K., Experientia, 34, 750 - 75l (l978)) by measuring the distance from the first toe to the fifth toe of the hind leg.
The ratio of the distance at the crushed side to the distance at the normal side was calculated as a percentage (%), the average values and the standard deviations (S.D.) being shown in Table 5.
It is known that removal of or disturbance in a certain nerve causes atrophy of the muscle controlled by the nerve, and the atrophy is gradually recovered by the recontrol by the nerve. For this reason, the quantitative change in weight of the muscle was selected as an indicator. At 28th day after the operation, the muscli soleus of both hind legs were extracted under anesthesia with Pentobarbital, and the weights of the muscles were weighed. The weight ratio of the muscli soleus at the crushed side to the muscli soleus at the normal side was calculated and represented by percentage (%).

## CCCCCCCCCCCCCCOCC(COC1(C(=O)O)CC(O)C(NC(C)=O)C(C(O)C(O)CO)O1)OCCCCCCCCCCCCCC (stereo not shown) [Compound (I)]
17th Day, 3 mg/kg, crushed side / normal side
  Recovery Rate (%) in Distance between the Fingers: 71.5 ± 5.5 %
17th Day, 30 mg/kg
  Recovery Rate (%) in Distance between the Fingers: 80.4 ± 9.6 %
19th Day, 3 mg/kg
  Recovery Rate (%) in Distance between the Fingers: 82.1 ± 9.7%
19th Day, 30 mg/kg
  Recovery Rate (%) in Distance between the Fingers: 90.3 ± 4.4 %
3 mg/kg, musculi soleus, crushed side / normal side
  Recovery Rate (%) in Weight of the Muscle: 82.8 ± 6.7%
30 mg/kg
  Recovery Rate (%) in Weight of the Muscle: 89.1 ± 5.7%
Result in words
  recovery of the distance between the toes and the weight of the musculi soleus: promoted the recovery to the normal values
